Consider six molecules from patent US20250382344A1, “Soluble GLP1/GIP/NPY2 Receptor Triple Agonists” (Boehringer Ingelheim International GmH, priority 2024, published 2025).

In one test the target is T1, hGLP1R (Homo sapiens, UniProt P43220).
T1 construct: expressed in transfected cells; host or cells: HEK-293 CRE-luciferase reporter cells
Put plainly: hGLP1R CreLuc assay in 0.5% and 100% plasma (HEK-293 CRE-luciferase reporter cells). Type of test: cell-based. The following applies: HEK-293 reporter cells. The text has this:
CHO and HEK-293 recombinant cell lines express a luciferase reporter gene under control of the CAMP responsive element (CRE). As a second recombinant protein the GLP-1 and NPY2 receptors were expressed in the reporter gene HEK cells, and the GIP receptor was expressed in the reporter gene CHO cells, respectively. Stimulation of these recombinant cells with an agonist leads to an increase of intracellular CAMP levels. In the presence of CAMP, the transcription factor CRE binding protein (CREB) binds to the CRE and to the CREB binding protein (CBP), which leads to transcription of the luciferase reporter gene. Peptides upon serial-dilution in 100% DMSO were transferred into 384-well assay plates with 5 μl pre-dispensed assay buffer (1×HBSS, 20 mM HEPES, pH7.4 supplemented with 0.5% human plasma) using acoustic dispensing on a Labcyte ECHO. Cryo-preserved transgenic reporter gene cells were thawed in assay buffer. 20 μl (10.000 cells/well) were added to the plate with the peptides and incubated for 4 hours at 37° C. in a humidified incubator. Following incubation, assay plates are equilibrated to room temperature, followed by addition of 25 μl of Bright-Glo™ Luciferase reagent, incubation at room temperature for 10 minutes and analysis of luminescence (Envision Reader). […] EC50 values were calculated by non-linear regression using sigmoid concentration-response with variable slope.
The same assays were run in the presence of 100% plasma with no additional buffer constituents.

For the next test, the target named is T2, hGIPR (Homo sapiens, UniProt P48546).
T2 construct: expressed in transfected cells; host or cells: CHO CRE-luciferase reporter cells
T2 sequence (P48546 22-466): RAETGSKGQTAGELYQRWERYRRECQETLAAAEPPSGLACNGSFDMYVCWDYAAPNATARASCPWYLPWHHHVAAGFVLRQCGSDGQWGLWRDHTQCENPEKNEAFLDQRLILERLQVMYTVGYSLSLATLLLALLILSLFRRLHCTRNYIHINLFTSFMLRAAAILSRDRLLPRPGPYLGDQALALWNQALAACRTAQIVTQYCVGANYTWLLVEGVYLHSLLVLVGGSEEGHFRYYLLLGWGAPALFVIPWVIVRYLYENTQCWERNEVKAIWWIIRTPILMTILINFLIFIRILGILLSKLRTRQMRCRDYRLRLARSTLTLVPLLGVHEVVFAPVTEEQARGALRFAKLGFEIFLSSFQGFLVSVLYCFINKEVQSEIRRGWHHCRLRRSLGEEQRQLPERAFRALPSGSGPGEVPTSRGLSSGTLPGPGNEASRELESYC
Put plainly: hGIPR CreLuc assay in 0.5% and 100% plasma (CHO CRE-luciferase reporter cells). Type of test: cell-based. A general note: Reporter assays use an easily measured gene product as a stand-in for the process of interest.

In test [1] the target is T3, human neuropeptide Y2 receptor (human, UniProt P49146 1-381).
T3 sequence (looked up): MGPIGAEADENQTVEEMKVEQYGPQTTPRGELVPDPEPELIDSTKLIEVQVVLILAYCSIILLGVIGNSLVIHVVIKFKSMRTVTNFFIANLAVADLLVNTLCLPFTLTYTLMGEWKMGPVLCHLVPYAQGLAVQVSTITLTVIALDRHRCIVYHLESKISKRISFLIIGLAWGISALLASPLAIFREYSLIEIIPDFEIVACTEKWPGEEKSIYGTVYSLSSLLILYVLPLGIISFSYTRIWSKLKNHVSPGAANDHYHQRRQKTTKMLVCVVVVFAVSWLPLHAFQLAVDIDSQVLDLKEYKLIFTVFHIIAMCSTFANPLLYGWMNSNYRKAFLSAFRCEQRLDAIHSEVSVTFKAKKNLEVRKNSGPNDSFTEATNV
Kind of test: cell-based or functional assay.

Where [2] appears, read: 0.5% human plasma, read-out: hGIPR 0.5% hP.

Positions count from the first letter of the chain named. Where two headings read alike, the source gives them in different places. *1 amine or outer side, *2 acyl side, *3 side chain or, on linkers, in order; H or OH if unused. Where no end group is shown, it is not given here. Side-chain parts run from the residue outwards. [ ]: non-standard residue; d: D form. The star is where a group is joined. C20 diacid = O=C(O)CCCCCCCCCCCCCCCCCCC(=O)*; γGlu = O=C(O)[C@H](CCC(=O)[*:2])N[*:1]; Aib = CC(C)(N)C(=O)O; Ahx = NCCCCCC(=O)O

T1 sequence (P43220 24-463): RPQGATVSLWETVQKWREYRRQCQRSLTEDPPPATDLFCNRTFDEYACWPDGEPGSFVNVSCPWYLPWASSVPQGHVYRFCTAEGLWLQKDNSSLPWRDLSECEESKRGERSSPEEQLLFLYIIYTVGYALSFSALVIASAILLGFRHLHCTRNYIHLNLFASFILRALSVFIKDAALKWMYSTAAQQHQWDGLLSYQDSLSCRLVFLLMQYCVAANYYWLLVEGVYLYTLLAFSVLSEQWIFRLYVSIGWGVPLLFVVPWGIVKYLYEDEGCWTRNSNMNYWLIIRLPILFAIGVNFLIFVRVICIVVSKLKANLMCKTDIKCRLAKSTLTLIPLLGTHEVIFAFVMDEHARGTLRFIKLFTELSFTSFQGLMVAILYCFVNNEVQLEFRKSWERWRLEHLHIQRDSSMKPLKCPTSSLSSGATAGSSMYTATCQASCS

Turning to `CC[C@H](C)[C@H](NC(=O)[C@H](Cc1ccccc1)NC(=O)[C@H](C)NC(=O)C(C)(C)NC(=O)[C@H](CCC(N)=O)NC(=O)[C@H](C)NC(=O)[C@H](CCC(N)=O)NC(=O)[C@H](CCCCN)NC(=O)[C@H](CCC(=O)O)NC(=O)[C@H](CC(C)C)NC(=O)C(C)(C)NC(=O)[C@@H](NC(=O)[C@H](CO)NC(=O)[C@H](CC(C)C)NC(=O)[C@H](CC(=O)O)NC(=O)[C@H](CO)NC(=O)[C@@H](NC(=O)[C@H](Cc1ccccc1)NC(=O)[C@@H](NC(=O)CNC(=O)[C@H](CCC(=O)O)NC(=O)C(C)(C)NC(=O)[C@@H](N)Cc1ccc(O)cc1)[C@@H](C)O)[C@@H](C)O)[C@@H](C)CC)C(=O)N[C@@H](CCCNC(=N)N)C(=O)N[C@@H](Cc1c[nH]cn1)C(=O)N[C@@H](CC(C)C)C(=O)N[C@H](C(=O)N[C@@H](CC(N)=O)C(=O)N[C@@H](CCCCNC(=O)[C@@H](N)CCCCNC(=O)CC[C@H](NC(=O)CC[C@H](NC(=O)CC[C@H](NC(=O)CC[C@H](NC(=O)CC[C@H](NC(=O)CC[C@H](NC(=O)CCCCCCCCCCCCCCCCCCC(=O)O)C(=O)O)C(=O)O)C(=O)O)C(=O)O)C(=O)O)C(=O)O)C(=O)NC(C)(C)C(=O)N[C@H](C(=O)N[C@@H](CCCNC(=N)N)C(=O)N[C@@H](CCC(N)=O)C(=O)N[C@@H](CCCNC(=N)N)C(=O)N[C@@H](Cc1ccc(O)cc1)C(N)=O)[C@@H](C)O)[C@@H](C)CC` [Compound 21, Y-Aib-E-G-T-F-T-S-D-L-S-I-Aib-L-E-K-Q-A-Q-Aib-A-F-I-R-H-L-I-N-K(1,3)-Aib-T-R-Q-R-Y-NH2.C20DA-gGlu-gGlu-gGlu-gGlu-gGlu-gGlu-eLys(1,2)], the EC50 stood at 13.9 nM on hGLP1R (hGLP1R 100% hP (nM), 100% human plasma); 0.2 nM on hGIPR (hGIPR 0.5% hP (nM), 0.5% human plasma); 5.6 nM at hGIPR (hGIPR 100% hP (nM), 100% human plasma).
`CC[C@H](C)[C@H](NC(=O)[C@H](CC(C)C)NC(=O)[C@H](Cc1c[nH]cn1)NC(=O)[C@H](CCCNC(=N)N)NC(=O)[C@@H](NC(=O)[C@H](Cc1ccccc1)NC(=O)[C@H](C)NC(=O)C(C)(C)NC(=O)[C@H](CCC(N)=O)NC(=O)[C@H](C)NC(=O)[C@H](CCC(N)=O)NC(=O)[C@H](CCCCN)NC(=O)[C@H](CCC(=O)O)NC(=O)[C@H](CC(C)C)NC(=O)C(C)(C)NC(=O)[C@@H](NC(=O)[C@H](CO)NC(=O)[C@H](Cc1ccc(O)cc1)NC(=O)[C@H](CC(=O)O)NC(=O)[C@H](CO)NC(=O)[C@@H](NC(=O)[C@H](Cc1ccccc1)NC(=O)[C@@H](NC(=O)CNC(=O)[C@H](CCC(=O)O)NC(=O)C(C)(C)NC(=O)[C@@H](N)Cc1ccc(O)cc1)[C@@H](C)O)[C@@H](C)O)[C@@H](C)CC)C(C)C)C(=O)N[C@@H](CC(N)=O)C(=O)N[C@@H](CCCCNC(=O)CC[C@H](NC(=O)CC[C@H](NC(=O)CC[C@H](NC(=O)CC[C@H](NC(=O)CC[C@H](NC(=O)CC[C@H](NC(=O)CCCCCCCCCCCCCCCCCCC(=O)O)C(=O)O)C(=O)O)C(=O)O)C(=O)O)C(=O)O)C(=O)O)C(=O)NC(C)(C)C(=O)N[C@H](C(=O)N[C@@H](CCCNC(=N)N)C(=O)N(C)[C@@H](CCC(N)=O)C(=O)N[C@@H](CCCNC(=N)N)C(=O)N[C@@H](Cc1ccc(O)cc1)C(N)=O)[C@@H](C)O` [Compound 114, Y-Aib-E-G-T-F-T-S-D-Y-S-I-Aib-L-E-K-Q-A-Q-Aib-A-F-V-R-H-L-I-N-K(1,3)-Aib-T-R-NMeQ-R-Y-NH2.C20DA-gGlu-gGlu-gGlu-gGlu-gGlu-gGlu(1,2)]: the EC50 on hGLP1R (0.5% human plasma, read-out: hGLP1R 0.5% hP) was 1.8 nM; on hGIPR (setting [2]), 0.5 nM.
`CC[C@H](C)[C@H](NC(=O)[C@H](C)NC(=O)[C@H](Cc1ccc(O)cc1)NC(=O)[C@H](CC(=O)O)NC(=O)[C@H](CO)NC(=O)[C@@H](NC(=O)[C@H](Cc1ccccc1)NC(=O)[C@@H](NC(=O)CNC(=O)[C@H](CCC(=O)O)NC(=O)C(C)(C)NC(=O)[C@@H](N)Cc1ccc(O)cc1)[C@@H](C)O)[C@@H](C)O)C(=O)NC(C)(C)C(=O)N[C@@H](CC(C)C)C(=O)N[C@@H](CCC(=O)O)C(=O)N[C@@H](CCCCN)C(=O)N[C@@H](CCC(N)=O)C(=O)N[C@@H](C)C(=O)N[C@@H](CCC(N)=O)C(=O)NC(C)(C)C(=O)N[C@@H](C)C(=O)N[C@@H](Cc1ccccc1)C(=O)N[C@H](C(=O)N[C@@H](CCCNC(=N)N)C(=O)N[C@@H](Cc1c[nH]cn1)C(=O)N[C@@H](CC(C)C)C(=O)N[C@H](C(=O)N[C@@H](CC(N)=O)C(=O)N[C@@H](CCCCNC(=O)[C@@H](N)CCCCNC(=O)CC[C@H](NC(=O)CC[C@H](NC(=O)CC[C@H](NC(=O)CC[C@H](NC(=O)CC[C@H](NC(=O)CC[C@H](NC(=O)CCCCCCCCCCCCCCCCC(=O)O)C(=O)O)C(=O)O)C(=O)O)C(=O)O)C(=O)O)C(=O)O)C(=O)NC(C)(C)C(=O)N[C@H](C(=O)N[C@@H](CCCNC(=N)N)C(=O)N[C@@H](CCC(N)=O)C(=O)N[C@@H](CCCNC(=N)N)C(=O)N[C@@H](Cc1ccc(O)cc1)C(N)=O)[C@@H](C)O)[C@@H](C)CC)C(C)C` [Compound 142, Y-Aib-E-G-T-F-T-S-D-Y-A-I-Aib-L-E-K-Q-A-Q-Aib-A-F-V-R-H-L-I-N-K(1,3)-Aib-T-R-Q-R-Y-NH2.C18DA-gGlu-gGlu-gGlu-gGlu-gGlu-gGlu-eLys(1,2)]: the EC50 was found to be 8 nM on hGLP1R (100% human plasma, read-out: hGLP1R 100% hP); 0.3 nM at hGIPR (setting [2]); 3.4 nM at hGIPR (100% human plasma, read-out: hGIPR 100% hP).

B1: Compound 131 (peptide)
peptide: YXEGTFTSDYSIXLDKQAQXEFVRHLINKXTRQRY
modifications: Aib at 2, 13, 20, 30; Lys29 epsilon-amino: C18DA-gGlu-gGlu-gGlu-gGlu-gGlu-gGlu-eLys; C-terminal amide
For the molecule B1, in test [1], the “EC50, CreLuc reporter, 0.5% hP” value turned out to be 17.5 nM and the “EC50, CreLuc reporter, 100% hP” value came out at 85.9 nM.

B2: Compound 165 (peptide)
peptide: B1 peptide with X13A, D15E, E21A
modifications: Aib at 2, 20, 30; Lys29 epsilon-amino: C18DA-gGlu-gGlu-gGlu-gGlu-gGlu-gGlu-eLys; C-terminal amide
Take B2: in test [1], the “EC50, CreLuc reporter, 0.5% hP” value worked out at 17.1 nM and the “EC50, CreLuc reporter, 100% hP” value is 32.9 nM.

B3: Compound 157 (peptide)
peptide: Y[Aib]EGTFTSDYSI[Aib]LEKQAQ[Aib]AFVRHLINK([Ahx-γGlu-γGlu-γGlu-γGlu-γGlu-γGlu-C20 diacid])[Aib]TRQRY-NH2
Take B3: in test [1], the “EC50, CreLuc reporter, 0.5% hP” value worked out at 15.9 nM and the “EC50, CreLuc reporter, 100% hP” value is 135 nM.
